Data on one compound can be found in patent publication EP3851097A1, “CONTROLLED RELEASE FORMULATIONS” (Universidad De Zaragoza, priority 2020, dated 2021).

The series in a line: Ocular tissue pharmacokinetics of dexamethasone after intravitreal injection (HPLC). To be noted: vitreous humor. Here is the method: Previously, a paracentesis in the anterior chamber was performed using a 30-gauge hypodermic needle with removal of aqueous humor, to avoid an intraocular pressure elevation.
Thirty female NZ albino rabbits were used for this study: fifteen for SCS group (50 µL-DEX/LAP suspension) and other fifteen for IVT group (100 µL).
After administration of DEX/LAP suspension (10 mg/mL, 1:10 w/w), the rabbits were sacrificed for sampling eye tissues and subsequent ocular PK studies. Three animals were used for each sampling time point at 1, 7, 28, 84 and 168 days. A rapid intravenous injection of sodium pentobarbital (30 mg/kg) through the ear vein was performed and immediately after euthanasia, ocular tissues were collected. Following eye enucleation, the globes were snap-frozen (-40°C) and specimens were obtained by eye dissection (vitreous, lens, sclera and chorio-retina compound). DEX concentrations in ocular tissues were determined using a simple and easily accessible method by HPLC-Mss, according to the methodology described by our group in a previous study.
The determination of DEX was carried out by HPLC-Mss method in a Waters 2695 system equipped with a Phenomenex Kinetex C18 column (75 mm × 4.6 mm × 2.6 µm) coupled to a Waters 2995 PDA detector. The mobile phase was acetonitrile/water (35:65 v/v) pumped at a flow rate of 0.2 mL/min at 35°C. Detection at 250 nm was used. The amount of DEX was calculated by a seven point calibration curve against 6-α-methylprednisolone as internal standard. Aliquots of the extraction medium (200 µL) were mixed with acetonitrile (2 mL) and 100 µL of a standard solution (20 ppm in acetonitrile). The solution was then vortexed for 1 min and sonicated for 5 min to ensure the complete mixing, and finally centrifuged at 3000 rpm for 5 min. The supernatant was collected and evaporated under vacuum, and then dissolved in 200 µL of acetonitrile, filtered through a 0.22 µm PTFE syringe filter and analyzed.
PK data were analyzed for the best fit and were consequently modelled according to compartmental models using Microsoft Excel's "PKSolver Add-in" (Albuquerque, NM, USA), in which equations describing concentration as a function of time are used. The following PK parameters were obtained: peak concentration (Cmax), time to peak concentration (Tmax), elimination half-life (T½).
To describe the time course-concentration after administration the following equation was used: Ctissue = C0 ∗e^(−Ke t) [formula] where C is the tissue concentration, C0 is the concentration at time to, Ke is the elimination rate constant which is derived from the elimination half-life of the drug (Ke= 0.693/T1/2).

[1] abbreviates: 100 µL intravitreal administration.

For the compound `C[C@@H]1C[C@H]2[C@@H]3CCC4=CC(=O)C=C[C@]4(C)[C@@]3(F)[C@@H](O)C[C@]2(C)[C@@]1(O)C(=O)CO` [DEX solution, Dexamethasone], under setting [1], the “AUC0-∞” value came to 317.17 ng·days/g, the C0 was 1737.71 ng/g, the Cl came to 315.29 g/day and the Ke was found to be 5.48 day⁻¹. For the same compound, the “clearance (CL)” value (intravitreal injection) turned out to be 315.29 g/day.
